Reference: patent US8957083B2, “Spiro-amino-imidazolone and spiro-amino-dihydro-pyrimidinone compounds as beta-secretase modulators and methods of use” (Amgen Inc., priority 2010, dated 2015)
Read-outs that look alike come from different tables or passages of the source.

Experiments:
[1] = target: BACE 1 (Beta Secretase enzyme) (Homo sapiens (Human), UniProt P56817); assay: In vitro enzymatic BACE FRET assay; format: biochemical; conditions: enzyme 0.2 nM, FRET substrate 50 nM, pH 4.2
Description: In Vitro Enzymatic BACE FRET (Fluorescence Resonance Energy Transfer) Assay (Enzyme Assay Data in the Example Table I)
The assay buffer used in this screen is 0.05 M acetate, pH 4.2, 10% DMSO final, 100 uM genapol (which is a nonionic detergent, below its Critical Micelle Concentration). […] This assay is effectively started by the addition of FRET substrate (50 nM) and the combination is incubated for one hour. The FRET assay is terminated with by addition of Tris buffer, which raises the pH to neutrality, and the fluorescence is determined. The FRET substrate is a peptide with commercially available fluorophore and quencher, on opposite sides of the BACE cleavage site. Proteolytic cleavage of the FRET substrate releases quenching of fluorescence (excitation […] and […]).

[2] = test system: Aβ40 in conditioned medium of cells expressing amyloid precursor protein; assay: In vitro BACE cell-based assay (HEK cell assay), Aβ40 sandwich ELISA; conditions: Aβ40 in supernatant after 24 h incubation
Description: In Vitro BACE Cell-Based Assay
The cell-based assay measures inhibition or reduction of Aβ40 in conditioned medium of test compound treated cells expressing amyloid precursor protein.
Cells stably expressing Amyloid Precursor Protein (APP) were plated at a density of 40K cells/well in 96 well plates (Costar). The cells were cultivated for 24 hours at 37° C. and 5% CO2 in DMEM supplemented with 10% FBS. The test compounds were then added to cells in 10-point dose response concentrations with the starting concentration being either 100 μM or 10 μM. The compounds were diluted from stock solutions in DMSO and the final DMSO concentration of the test compounds on cells was 0.1%. After 24 h of incubation with the test compounds the supernatant conditioned media was collected and the Aβ 40 levels were determined using a sandwich ELISA. The IC50 of the compound was calculated from the percent of control or percent inhibition of Aβ 40 as a function of the concentration of the test compound.
The sandwich ELISA to detect Aβ 40 was performed in 96 well microtiter plates, which were pre-treated with goat anti-rabbit IgG (Pierce). The capture and detecting antibody pair that were used to detect Aβ 40 from cell supernatants were affinity purified pAb40 (Biosource) and biotinylated 6E10 (Signet Labs Inc.), respectively. The optimal concentration for the pAb40 antibody was 3 μg/ml in Superblock/TBS (Pierce) that was supplemented with 0.05% Tween 20 (Sigma).
Cellular supernatants were incubated with the capture antibody for 3 h at 4° C., followed by 3 wash steps in TBS-tween (0.05%). The detecting antibody incubation was for 2 h at 4° C., again followed by the wash steps as described previously. The final readout of the ELISA is Time-Resolved Fluorescence (counts per minute) using Delfia reagents Streptavidin-Europium and Enhancement solutions (Perkin Elmer) and the Victor 2 multilabel counter (Perkin Elmer).

[3] = average IC50, read-out: BACE 1 FRET assay
[4] = Homo sapiens, HEK293, 24 h, average IC50, read-out: HEK cell assay
[5] = average IC50, read-out: HEK cell assay

Sequence of BACE 1 (Beta Secretase enzyme) (P56817 46-501): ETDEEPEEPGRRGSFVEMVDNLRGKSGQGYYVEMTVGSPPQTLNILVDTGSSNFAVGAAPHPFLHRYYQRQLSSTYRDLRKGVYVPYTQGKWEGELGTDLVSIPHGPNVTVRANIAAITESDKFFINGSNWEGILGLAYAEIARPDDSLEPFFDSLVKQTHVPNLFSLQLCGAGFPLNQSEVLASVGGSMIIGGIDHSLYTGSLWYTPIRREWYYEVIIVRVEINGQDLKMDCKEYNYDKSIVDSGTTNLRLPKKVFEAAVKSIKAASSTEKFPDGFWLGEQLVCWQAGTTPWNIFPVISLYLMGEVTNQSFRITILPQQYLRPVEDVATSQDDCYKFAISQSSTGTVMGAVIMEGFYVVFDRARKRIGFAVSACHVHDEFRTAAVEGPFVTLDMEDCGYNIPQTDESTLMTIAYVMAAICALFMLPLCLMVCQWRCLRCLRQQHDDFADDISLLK

Row | SMILES | IC50 [1, 3] [nM] | IC50 [2, 4] [nM] | IC50 ([1]; class symbols, read-out: BACE 1 FRET assay (IC50 class)) [nM] | IC50 ([2]; Homo sapiens, HEK293, 24 h, class symbols, read-out: HEK cell assay (IC50 class)) [nM] | IC50 [2, 5] [nM]
1 | CC#Cc1cncc(-c2ccc3c(c2)[C@@]2(N=C(N)N(C)C2=O)c2cc(C4=CCOCC4)cc(F)c2O3)c1 [Example 31, (4R)-2-amino-2′-(3,6-dihydro-2H-pyran-4-yl)-4′-fluoro-1-methyl-7′-(5-(1-propyn-1-yl)-3-pyridinyl)spiro[imidazole-4,9′-xanthen]-5(1H)-one] | 179 | 4410 | – | – | –
2 | CN1C(=O)C[C@]2(N=C1N)c1cc(-c3cccnc3F)ccc1Oc1c2cc(C2=CCOC(C)(C)C2)nc1F [Example 27, (S)-2′-amino-3-(2,2-dimethyl-3,6-dihydro-2H-pyran-4-yl)-1-fluoro-7-(2-fluoropyridin-3-yl)-1′-methyl-1′H-spiro[chromeno[2,3-c]pyridine-5,4′-pyrimidin]-6′(5′H)-one] | 0.7 | 5 | – | – | –
3 | CN1C(=O)[C@]2(N=C1N)c1cc(-c3cccc(Cl)c3)ccc1Oc1c(F)cc(C3=CCOCC3)cc12 [Example 34, (4S)-2-amino-7′-(3-chlorophenyl)-2′-(3,6-dihydro-2H-pyran-4-yl)-4′-fluoro-1-methylspiro[imidazole-4,9′-xanthen]-5(1H)-one] | 0.3 | 9.9 | – | – | –
4 | CN1C(=O)C[C@@]2(N=C1N)c1cc(-c3cccnc3F)ccc1Oc1cnc(-c3ccnc(F)c3)cc12 [Example 21-A, (R)-7-(2-Fluoropyridin-3-yl)-3-(2-fluoropyridin-4-yl)-2′-imino-1′-methyl-2′,3′-dihydro-1′H-spiro[chromeno[2,3-c]pyridine-5,4′-pyrimidin]-6′(5′H)-one] | – | 2380 | – | – | –
5 | CN1C(=O)C[C@]2(N=C1N)c1cc(-c3cccnc3F)ccc1Oc1cnc(-c3ccnc(F)c3)cc12 [Example 21-B, (S)-7-(2-Fluoropyridin-3-yl)-3-(2-fluoropyridin-4-yl)-2′-imino-1′-methyl-2′,3′-dihydro-1′H-spiro[chromeno[2,3-c]pyridine-5,4′-pyrimidin]-6′(5′H)-one] | – | 99.5 | – | – | –
6 | CN1C(=O)[C@@]2(N=C1N)c1cc(-c3cccnc3F)ccc1Oc1c(F)cc(-c3ccnc(F)c3)cc12 [Example 38, (4R)-2-amino-4′-fluoro-7′-(2-fluoro-3-pyridinyl)-2′-(2-fluoro-4-pyridinyl)-1-methylspiro[imidazole-4,9′-xanthen]-5(1H)-one] | – | 290 | – | – | –
7 | CN1C(=O)[C@@]2(N=C1N)c1cc(-c3cccc(Cl)c3)ccc1Oc1c(F)cc(C3=CCOCC3)cc12 [Example 35, (4R)-2-amino-7′-(3-chlorophenyl)-2′-(3,6-dihydro-2H-pyran-4-yl)-4′-fluoro-1-methylspiro[imidazole-4,9′-xanthen]-5(1H)-one] | 24.3 | 1820 | – | – | –
8 | CN1C(=O)CC2(N=C1N)c1cc(Br)ccc1Oc1c2cc(Cl)nc1F (centres unmarked) [Example 11, 2′-amino-7-bromo-3-chloro-1-fluoro-1′-methyl-1′H-spiro[chromeno[2,3-c]pyridine-5,4′-pyrimidin]-6′(5′H)-one] | – | – | > 1000 | > 1000 | –
9 | CN1C(=O)C[C@]2(N=C1N)c1cc(-c3cccnc3F)ccc1Oc1c2cc(C2=CCCOC2)nc1F [Example 17, (S)-2′-amino-3-(5,6-dihydro-2H-pyran-3-yl)-1-fluoro-7-(2-fluoropyridin-3-yl)-1′-methyl-1′H-spiro[chromeno[2,3-c]pyridine-5,4′-pyrimidin]-6′(5′H)-one] | 2.8 | 223 | – | – | –
10 | CN1C(=O)CC2(N=C1N)c1cc(-c3cccnc3F)ccc1Oc1c2cc(-c2cccnc2F)nc1F (centres unmarked) [Example 13, 2′-amino-1-fluoro-3,7-bis(2-fluoropyridin-3-yl)-1′-methyl-1′H-spiro[chromeno[2,3-c]pyridine-5,4′-pyrimidin]-6′(5′H)-one] | 22.8 | 154 | – | – | –
11 | CN1C(=O)C[C@@]2(N=C1N)c1cc(-c3cccnc3F)ccc1Oc1cnc(C3=CCCOC3)cc12 [Example 25, (R)-2′-amino-3-(5,6-dihydro-2H-pyran-3-yl)-7-(2-fluoropyridin-3-yl)-1′-methyl-1′H-spiro[chromeno[2,3-c]pyridine-5,4′-pyrimidin]-6′(5′H)-one] | 2430 | 6170 | – | – | –
12 | CN1C(=O)C[C@]2(N=C1N)c1cc(-c3cccnc3F)ccc1Oc1cnc(C3=CCOCC3)cc12 [Example 22, (S)-2′-amino-3-(3,6-dihydro-2H-pyran-4-yl)-7-(2-fluoropyridin-3-yl)-1′-methyl-1′H-spiro[chromeno[2,3-c]pyridine-5,4′-pyrimidin]-6′(5′H)-one] | 9.3 | 59.8 | – | – | –
13 | CC#Cc1cncc(-c2ccc3c(c2)[C@]2(N=C(N)N(C)C2=O)c2cc(C4=CCOCC4)cc(F)c2O3)c1 [Example 32, (4S)-2-amino-2′-(3,6-dihydro-2H-pyran-4-yl)-4′-fluoro-1-methyl-7′-(5-(1-propyn-1-yl)-3-pyridinyl)spiro[imidazole-4,9′-xanthen]-5(1H)-one] | 0.5 | – | – | – | 7.6
14 | CN1C(=O)C[C@@]2(N=C1N)c1cc(-c3cccnc3F)ccc1Oc1c2cc(Cl)nc1F [Example 14, (R)-2′-amino-3-chloro-1-fluoro-7-(2-fluoropyridin-3-yl)-1′-methyl-1′H-spiro[chromeno[2,3-c]pyridine-5,4′-pyrimidin]-6′(5′H)-one] | 8210 | 361 | – | – | –
15 | CN1C(=O)C[C@]2(N=C1N)c1cc(-c3cccnc3F)ccc1Oc1cnc(C3=CCCOC3)cc12 [Example 24, (S)-2′-amino-3-(5,6-dihydro-2H-pyran-3-yl)-7-(2-fluoropyridin-3-yl)-1′-methyl-1′H-spiro[chromeno[2,3-c]pyridine-5,4′-pyrimidin]-6′(5′H)-one] | 12.1 | 52.3 | – | – | –
16 | CN1C(=N)NC2(CC1=O)c1cc(-c3cccnc3F)ccc1Oc1cnc(-c3cccnc3F)cc12 (centres unmarked) [Example 21, 3,7-bis(2-fluoropyridin-3-yl)-2′-imino-1′-methyl-2′,3′-dihydro-1′H-spiro[chromeno[2,3-c]pyridine-5,4′-pyrimidin]-6′(5′H)-one] | 48.3 | 426 | – | – | –
17 | CN1C(=O)C[C@@]2(N=C1N)c1cc(-c3cccnc3F)ccc1Oc1cnc(C3=CCOCC3)cc12 [Example 23, (R)-2′-amino-3-(3,6-dihydro-2H-pyran-4-yl)-7-(2-fluoropyridin-3-yl)-1′-methyl-1′H-spiro[chromeno[2,3-c]pyridine-5,4′-pyrimidin]-6′(5′H)-one] | 1750 | 1680 | – | – | –
18 | CN1C(=O)CC2(N=C1N)c1cc(-c3cccnc3F)ccc1Oc1c2cc(C2=CCCOC2)nc1F (centres unmarked) [Example 16, 2′-amino-3-(5,6-dihydro-2H-pyran-3-yl)-1-fluoro-7-(2-fluoropyridin-3-yl)-1′-methyl-1′H-spiro[chromeno[2,3-c]pyridine-5,4′-pyrimidin]-6′(5′H)-one] | 1.4 | 6.3 | – | – | –
19 | CN1C(=O)C[C@]2(N=C1N)c1cc(-c3cccnc3F)ccc1Oc1c2cc(C2=CC(C)(C)OCC2)nc1F [Example 26, (S)-2′-amino-3-(6,6-dimethyl-3,6-dihydro-2H-pyran-4-yl)-1-fluoro-7-(2-fluoropyridin-3-yl)-1′-methyl-1′H-spiro[chromeno[2,3-c]pyridine-5,4′-pyrimidin]-6′(5′H)-one] | 0.6 | 5 | – | – | –
20 | Cc1ccc(-c2cc(F)c3c(c2)[C@]2(N=C(N)N(C)C2=O)c2cc(-c4cccc(Cl)c4)ccc2O3)cc1 [Example 36, (4R)-2-amino-7′-(3-chlorophenyl)-4′-fluoro-1-methyl-2′-(4-methylphenyl)spiro[imidazole-4,9′-xanthen]-5(1H)-one] | 225 | – | – | – | > 10000
21 | CN1C(=O)[C@]2(N=C1N)c1cc(-c3cccnc3F)ccc1Oc1c(F)cc(-c3ccnc(F)c3)cc12 [Example 39, (4S)-2-amino-4′-fluoro-7′-(2-fluoro-3-pyridinyl)-2′-(2-fluoro-4-pyridinyl)-1-methylspiro[imidazole-4,9′-xanthen]-5(1H)-one] | – | 3.1 | – | – | –
